Source: patent publication US20150289512A1, “METHOD FOR PROMOTING PLANT GROWTH” (SUMITOMO CHEMICAL COMPANY, LIMITED, priority 2012, published 2015)

Key:
Type in all cases: in vivo
Nicotiana benthamiana [1] = test: Test Example 5: growth promotion under low-temperature stress by hydroponics of Nicotiana benthamiana, 1 ppm; conditions: 1 ppm in medium, low-temperature stress 7 days at 1.5±1.0° C., green leaf area 3 days later, equation (1)
Method: (§1) Test for Evaluating Growth Promotion Under Low-Temperature Stress by Hydroponics of Nicotiana benthamiana
A DMSO solution, which contained one of the compounds 2, 4, 5, 6, 11, 12, 17, 20, 21, 28, 30, 34, 36, 37, 51, 52, 53, 55, 56, 58, 59, 60, 64, 65, 66, 68, 69, 70, 74, 77, 82, 83, 84, 86 and 87 of the present invention at a concentration of 1,000 ppm, was prepared. The DMSO solution of the compound of the present invention was added at a volume ratio of 1/1,000 to the Murashige•Scoog medium of a ½-fold concentration (a medium containing 2.3 g of mixed salts for the Murashige•Scoog medium (manufactured by Wako Pure Chemical Industries, Ltd.), 200 mg of Myo-inositol (manufactured by Sigma-Aldrich Co. LLC.), 2 mg of nicotinic acid (manufactured by Wako Pure Chemical Industries, Ltd.), 2 mg of pyridoxine hydrochloride (manufactured by Wako Pure Chemical Industries, Ltd.), 20 mg of thiamine hydrochloride (manufactured by Wako Pure Chemical Industries, Ltd.), 20 g of sucrose (manufactured by Wako Pure Chemical Industries, Ltd.), and 1 g of MES (manufactured by DOJINDO LABORATORIES) per 1 L of water and having pH adjusted to 5.8), thereby preparing a medium containing the compound of the present invention at a concentration of 1 ppm.
(§2) Seeds of Nicotiana benthamiana were seeded in the 5 μL of the medium and cultured overnight at 22° C. Thereafter, 45 μL of the medium containing the compound of the present invention at a concentration of 1 ppm was added thereto, and the seeds are cultured for 7 days at 22° C., an illuminance of 4,000 lux, and a day length of 16 hours, and the nursery plants raised from the Nicotiana benthamiana were treated with the compound. Moreover, instead of the above medium, a test plot, which was obtained by performing the same treatment by using a medium prepared by adding DMSO to the Murashige•Scoog medium of ½-fold concentration at a volume ratio of 1/1,000, was used as a control plot not treated with the compound.
(§3) The nursery plants of the Nicotiana benthamiana treated with the compound were subjected to low-temperature treatment by being cultivated for 7 days at 1.5±1.0° C., an illuminance of 2,000 lux, and a day length of 16 hours.
The nursery plants of the Nicotiana benthamiana having undergone the low-temperature stress treatment were cultured for 3 days at 22° C., an illuminance of 4,000 lux, and a day length of 16 hours. Thereafter, the area of green leaf was quantified by Scanalyzer HTS (manufactured by LemnaTec GmbH). Moreover, the value of the control plot not treated with the compound that had not yet been subjected to the low-temperature stress treatment was measured in the same manner. A value of a relative leaf area was calculated based on the following equation (1), and if the value of a relative leaf area was 5 or greater, the compound was evaluated to have a mitigating effect. As a result of the evaluation, it was confirmed that when the plant was treated with one of the compounds 2, 4, 5, 6, 11, 12, 17, 20, 21, 28, 30, 34, 36, 37, 51, 52, 53, 55, 56, 58, 59, 60, 64, 65, 66, 68, 69, 70, 74, 77, 82, 83, 84, 86 and 87 of the present invention at 1 ppm, the value of a relative leaf area was 5 or greater, compared to the area of green leaf of the control plot not treated with compound. Accordingly, it was confirmed that the treatment using the compound of the present invention brings about a growth promotion effect.
(§4) Relative leaf area=100*(a green area of a plot treated with the compound of the present invention−a green area of a control plot not treated with the compound of the present invention)/(a green area of a control plot not treated with the compound of the present invention that has not yet been subjected to low-temperature stress treatment−a green area of a control plot not treated with the compound of the present invention) Equation (1): […]

Nicotiana benthamiana [2] = test: Test Example 4: growth promotion under low-temperature stress by hydroponics of Nicotiana benthamiana, 10 ppm; conditions: 10 ppm in medium, low-temperature stress 7 days at 1.5±1.0° C., green leaf area 3 days later, equation (1)
Method: as §1
A DMSO solution, which contained one of the compounds 1, 8, 9, 13, 18, 19, 22, 23, 29, 32, 33, 34, 39, 40, 41, 43, 44, 51, 53, 54, 55, 56, 58, 60, 62, 63, 64, 65, 67, 69, 71, 73, 74, 75, 77, 79, 82, 83 and 86 of the present invention at a concentration of 10,000 ppm, was prepared. The DMSO solution of the compound of the present invention was added at a volume ratio of 1/1,000 to the Murashige•Scoog medium of a ½-fold concentration (a medium containing 2.3 g of mixed salts for the Murashige•Scoog medium (manufactured by Wako Pure Chemical Industries, Ltd.), 200 mg of Myo-inositol (manufactured by Sigma-Aldrich Co. LLC.), 2 mg of nicotinic acid (manufactured by Wako Pure Chemical Industries, Ltd.), 2 mg of pyridoxine hydrochloride (manufactured by Wako Pure Chemical Industries, Ltd.), 20 mg of thiamine hydrochloride (manufactured by Wako Pure Chemical Industries, Ltd.), 20 g of sucrose (manufactured by Wako Pure Chemical Industries, Ltd.), and 1 g of MES (manufactured by DOJINDO LABORATORIES) per 1 L of water and having pH adjusted to 5.8), thereby preparing a medium containing the compound of the present invention at a concentration of 10 ppm.
as §2, with “concentration of 10 ppm was” for “concentration of 1 ppm was”, “seeds are cultivated for 7” for “seeds are cultured for 7”
as §3
The nursery plants of the Nicotiana benthamiana having undergone the low-temperature stress treatment were cultivated for 3 days at 22° C., an illuminance of 4,000 lux, and a day length of 16 hours. Thereafter, the area of green leaf was quantified by Scanalyzer HTS (manufactured by LemnaTec GmbH). Moreover, the value of the control plot not treated with the compound that had not yet been subjected to the low-temperature stress treatment was measured in the same manner. A value of a relative leaf area was calculated based on the following equation (1), and if the value of a relative leaf area was 5 or greater, the compound was evaluated to have a mitigating effect. As a result of the evaluation, it was confirmed that when the plant was treated with one of the compounds 1, 8, 9, 13, 18, 19, 22, 23, 29, 32, 33, 34, 39, 40, 41, 43, 44, 51, 53, 54, 55, 56, 58, 60, 62, 63, 64, 65, 67, 69, 71, 73, 74, 75, 77, 79, 82, 83 and 86 of the present invention at 10 ppm, the value of a relative leaf area was 5 or greater, compared to the area of green leaf of the control plot not treated with compound. Accordingly, it was confirmed that the treatment using the compound of the present invention brings about a growth promotion effect.
as §4

[3] = test system: Rice (variety: Nipponbare); test: Test Example 1: promotion of root growth by hydroponics of rice, 10 ppm; conditions: Oryza sativa, hydroponic solution containing the test compound at 10 ppm, average of 4 or 5 individuals, read-out: Relative value of length of seminal root (%-untreated control plot)
Method: (§5) Test for Evaluating Promotion of Root Growth by Hydroponics of Rice
(§6) Rice (variety: Nipponbare)
Rice seeds were soaked in a 1% aqueous sodium hypochlorite solution for 10 minutes, then soaked in a 70% ethanol solution for surface sterilization, and then washed with distilled water. The sterilized seeds were soaked in a hydroponic solution containing the test compound described above at 10 ppm and incubated in a dark place for 3 days at 28° C. to perform treatment for hastening germination.
(§7) Thereafter, 30 ml of hydroponic solution containing the test compound at 10 ppm was dispensed in a plastic tube (diameter of 20 mm×height of 113 mm) of which the side was covered with cardboard to block light. A float prepared using a styrene board and vinyl mesh was floated, and the rice seeds that had undergone the treatment for hastening germination were placed on the float on the surface of the hydroponic solution. The seeds were cultivated for 3 days at 26° C., an illuminance of 4,000 lux of the top surface of the tube, a humidity of 50%, and a day length of 16 hours.
The nursery plants of rice obtained after culturing were measured in terms of the length of seminal root by using WinRHIZO system (manufactured by Regent Instruments Inc). For each test plot, an average of the measured values of the seminal root of 4 or 5 individuals was determined.

[4] = test system: Rice (variety: Nipponbare); test: Test Example 2: promotion of root growth by hydroponics of rice, 1 ppm; conditions: Oryza sativa, hydroponic solution containing the test compound at 1 ppm, average of 4 or 5 individuals, read-out: Relative value of length of seminal root (%-untreated control plot)
Method: as §5, §6
A DMSO solution, which contained one of the compounds 1, 3, 11, 12, 14, 15, 17, 21, 28, 30, 33, 34, 35, 36, 37, 38, 40, 41, 43, 44, 45, 46, 47, 49, 50, 51, 52, 53, 54, 55, 56, 61, 62, 63, 65, 67, 68, 69, 70, 73, 74, 75, 76, 77, 80, 82, 83, 85 and 86 of the present invention at a concentration of 10,000 ppm, was added to Hoagland hydroponic solution (Hoagland and Arnon, California Agricultural Experiment Station 1950 Circular 347 pp. 34) of ¼-fold concentration at a volume ratio of 1/10,000. In this manner, hydroponic solutions containing one of the compounds 1, 3, 11, 12, 14, 15, 17, 21, 28, 30, 33, 34, 35, 36, 37, 38, 40, 41, 43, 44, 45, 46, 47, 49, 50, 51, 52, 53, 54, 55, 56, 61, 62, 63, 65, 67, 68, 69, 70, 73, 74, 75, 76, 77, 80, 82, 83, 85 and 86 of the present invention at 1 ppm were prepared respectively. As an untreated control plot, a hydroponic solution obtained by adding DMSO to Hoagland hydroponic solution of ¼-fold concentration at a volume ratio of 1/10,000 was used. Rice seeds were soaked in a 1% aqueous sodium hypochlorite solution for 10 minutes, then soaked in a 70% ethanol solution for surface sterilization, and then washed with distilled water. The sterilized seeds were soaked in a hydroponic solution containing the test compound described above at 1 ppm and incubated in a dark place for 3 days at 28° C. to perform treatment for hastening germination.
as §7, with “1” for “10”
The nursery plants of rice obtained after cultivation were measured in terms of the length of seminal root by using WinRHIZO system (manufactured by Regent Instruments Inc). For each test plot, an average of the measured values of the seminal root of 4 or 5 individuals was determined.

SMILES | relative leaf area (% of untreated control) at 1 ppm (Nicotiana benthamiana [1]) [%] | relative leaf area at 10 ppm (Nicotiana benthamiana [2]) [%] | change in vivo at 10 ppm [3] [%] | change in vivo at 1 ppm [4] [%]
COC(=O)c1oc2ccccc2c1N(C)C [Compound 58] | ≥ 5 | ≥ 5 |  | 
COC(=O)c1oc2ccccc2c1NS(C)(=O)=O [Compound 60] | ≥ 5 | ≥ 5 | > 5 | 
COC(=O)c1nc2cc(C(F)(F)F)ccc2[nH]1 [Compound 21, methyl 5-(trifluoromethyl)benzimidazole-2-carboxylate] | ≥ 5 |  |  | > 5
